Our source for the growth rescue activity values is PubChem BioAssay AID624258 (Broad Institute, 2012).

A short description of the test: SKN7 mediated toxicity in Saccharomyces cerevisiae, growth rescue counterscreen, dose confirmation (AID 624258).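 Note: growth read after three days of incubation at 30 °C; 0% = median of neutral control wells.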 The following applies: S. cerevisiae SKN7-toxicity growth rescue, plate reader.

Active and inactive are the calls of the source. The rule behind the calls is not given here.

For `CCCCNc1c(-c2ccc(-c3ccc(OC)cc3)c(OC)c2)nc2ccccn12`, for the setting “at 19.5 µM (top of the series)”, the growth rescue activity was -84.6% (inactive). Still for that read-out and setting: under `Cn1nnnc1N=N/C(=N/Nc1ccccc1)c1ccccc1` stands -47% (inactive). Still for that read-out and setting: under `O=C1c2ccccc2-n2c1nc1ccccc1c2=O` stands -48.7% (inactive). Same read-out and setting: under `[O-][n+]1cccc2c(Br)cc(Br)c(O)c21` stands -82.7% (inactive). Take `CC[C@@H](C(=O)[C@@H](C)[C@@H](O)[C@H](C)[C@@H]1O[C@@H]([C@@H](CC)C(=O)O)CC[C@@H]1C)[C@H]1O[C@]2(C=C[C@@H](O)[C@]3(CC[C@@](C)([C@H]4CC[C@](O)(CC)[C@H](C)O4)O3)O2)[C@H](C)C[C@@H]1C`: the growth rescue activity (at 19.5 µM (top of the series)) is -61.6% (inactive). The same measure, in the same setting: under `O=C1OCC(CO)(CO)N=C1NNc1ccc(Cl)c(Cl)c1` stands -52.3% (inactive). Same read-out and setting: under `O=C(c1ccccc1)c1ccc(Cn2cc(-c3ccccc3)nn2)cc1` stands 19.2% (inactive). Same read-out and setting: under `CCOC(=O)C1=NN(c2ccccc2)C(=O)/C1=C\c1ccc(N(C)C)cc1` stands -16.7% (inactive); under `O=[N+]([O-])c1ccc(/C=N/NC(=S)Nc2ccc(Cl)cc2Cl)s1`, -44% (inactive); under `C=CCNc1nc(-c2ccccn2)nnc1-c1ccccc1`, -28.2% (inactive). Regarding `Oc1c(I)cc(Cl)c2cccnc12`, the growth rescue activity (at 19.5 µM (top of the series)) is -81.1% (inactive). The same measure, in the same setting: under `CC/C(=N/NC(=O)c1ccccc1O)c1c(C)[nH]n(-c2ccccc2)c1=O` stands -59.4% (inactive); under `CNc1cc(CSC)nc(SCc2ccc(Cl)cc2Cl)n1`, -57.8% (inactive); under `Clc1ccc(C2=NCCN2)cc1`, -65.4% (inactive). Still for that read-out and setting: under `NC(=O)N=Nc1c2[nH]c3ccccc3nc-2c2ccccc12` stands 6.67% (inactive). Take `COC(=O)/C(=C/Nc1ccc(O)cc1)[N+](=O)[O-]`: the growth rescue activity (at 19.5 µM (top of the series)) was -10% (inactive). On the same count and under the same terms, under `O=C1C=C(NCc2ccccc2)c2ccccc2C1=O` stands 41.7% (inactive); under `CC1CCN(c2ccc3c(c2)S(=O)(=O)c2ccccc2C3=O)CC1`, -45.6% (inactive). On the same count and under the same terms, under `Nc1cc2nc3ccccc3oc-2cc1=O` stands -51.6% (inactive). On the same count and under the same terms, under `C=CCOCCN(C)C1=NS(=O)(=O)c2cc([N+](=O)[O-])ccc21` stands -14.3% (inactive); under `CN1C(=S)SC(N(O)C(=O)Nc2cccc3ccccc23)C1(C)C` (centres undefined), 0.395% (inactive); under `Cc1ccc(Sc2ccc(NC(=O)CCl)cc2)cc1C`, -34.2% (inactive).

For the molecule `O=C1C=C(NCCc2cc(Br)c(O)c(Br)c2)C(=O)c2ncccc21`, the growth rescue activity (at 19.5 µM (top of the series)) was 30.5% (inactive). For the molecule `FC(F)(F)c1nc(SCc2ccc(Cl)cc2Cl)n[nH]1`, the growth rescue activity (at 19.5 µM (top of the series)) was -80.8% (inactive). Still for that read-out and setting: under `Cc1nc(Sc2ccccc2)c(C#N)c(C)c1[N+](=O)[O-]` stands 147% (inactive).

As to `C=C1C(=O)C23CCC4C(C)(C(=O)OC)CCCC4(C)C2CCC1(O)C3` (centres undefined), the growth rescue activity (at 2.1 µM (top of the series)) is -9.52% (inactive). In the case of `OCCN(CCO)c1cc2c3ccccc3ccc2c2ccccc12`, the growth rescue activity (at 19.5 µM (top of the series)) was 9.38% (inactive). Same read-out and setting: under `Nc1ccc(CC2=NCCN2)cc1` stands 34.1% (inactive); under `Cc1cc(NC2=CC(=O)C(=O)c3ccccc32)no1`, -9.16% (inactive). On to `O=C(Nc1ccc(Br)c(C(F)(F)F)c1)c1ccccc1`, for which the growth rescue activity (at 19.5 µM (top of the series)) is -78.2% (inactive). Regarding `CCCCCCSc1ccc(-c2nc3ccccn3c2NCCCC)cc1`, the growth rescue activity (at 19.5 µM (top of the series)) is -84.3% (inactive). Still for that read-out and setting: under `O=C1C(Nc2ccccc2)=C/C(=N/S(=O)(=O)c2cccs2)c2ccccc21` stands -8.54% (inactive); under `O=C(O)CSc1nc(-c2ccc(Cl)cc2)nc2c1oc1ccccc12`, -84.1% (inactive); under `Cc1ccc(S(=O)(=O)N(C(=O)c2ccncc2)c2ccc(OC(=O)c3ccncc3)cc2)cc1`, -57.3% (inactive). On the same count and under the same terms, under `CCOC(=O)c1c2c(n(-c3ccc(OC)cc3)c1C)C(=O)C(=O)c1ccccc1-2` stands -68% (inactive); under `CC1(C)C2CCC1(C)C(OC(=O)c1ccc(O)cc1)C2` (centres undefined), -86.9% (inactive). The same measure, in the same setting: under `O=[N+]([O-])c1ccc2c(OCc3nnc(-c4ccccc4Br)o3)ncnc2c1` stands 7.4% (inactive); under `O=C(Oc1ccccc1C(=S)N1CCOCC1)c1ccc([N+](=O)[O-])cc1[N+](=O)[O-]`, -8.27% (inactive). For the molecule `Cc1ccc2c(c1C)-c1c(ccc(C)c1C)C(=O)C2=O`, where the note is “at 6.8 µM (top of the series)”, the growth rescue activity is -4.89% (inactive). Regarding `CC12CNCC(C)(CN(C3(O)C(=O)Nc4ccc(Br)cc43)C1)C2=O` (centres undefined), where the note is “at 19.5 µM (top of the series)”, the growth rescue activity is -39.9% (inactive). With `O=C(C1COc2ccccc2O1)N1CCN(c2ccccc2Cl)CC1` (centres undefined), under “at 19.5 µM (top of the series)”, the growth rescue activity was -13% (inactive).

For `CC(=O)C1=C(c2cccc([N+](=O)[O-])c2)N(C(C)=O)n2c(C)nnc2S1`, the growth rescue activity (at 19.5 µM (top of the series)) is -84.3% (inactive). The same measure, in the same setting: under `CC1CN(C(=O)c2cc([N+](=O)[O-])cc([N+](=O)[O-])c2)CC(C)O1` (centres undefined) stands -63% (inactive); under `c1ccc(C(=NNc2nc3ccccc3s2)c2ccccn2)cc1`, -69.9% (inactive); under `CCCCCCCCCCCCCC(=O)NO`, -69.6% (inactive).

Consider `O=[N+]([O-])c1ccc(Sc2cccc[n+]2[O-])c2nonc12`, for which the growth rescue activity (at 19.5 µM (top of the series)) is -4.98% (inactive). Same read-out and setting: under `COc1cc(NS(=O)(=O)c2ccc(C)cc2)c2ncccc2c1` stands -51.9% (inactive); under `Cc1cccc(N2CCN(C(=O)C3COc4ccccc4O3)CC2)c1C` (centres undefined), -49.4% (inactive); under `CCCn1nc(C(=O)N2CCN(S(=O)(=O)c3ccc(C)c(C)c3)CC2)c2ccccc2c1=O`, -50.4% (inactive). On the same count and under the same terms, under `Cc1ccc(-n2ncc(Br)c(Br)c2=O)cc1` stands 23.6% (inactive); under `O=C(CCNS(=O)(=O)c1ccc(Br)s1)N1CCN(c2ccccc2)CC1`, -25.4% (inactive). Same read-out and setting: under `COc1ccc2oc(=O)c(-c3csc(Nc4cccc(O)c4)n3)cc2c1` stands 12.4% (inactive); under `Oc1ccc(Br)cc1/C=N/Nc1ccccn1`, -73.9% (inactive).

`CCn1c2ccc(C)cc2c2nc3cc(C(=O)O)ccc3nc21`: the growth rescue activity (at 19.5 µM (top of the series)) is 18.7% (inactive). For `Cc1csc(NC(=O)C(C)Oc2ccc(Cl)cc2C)n1` (centres undefined), for the setting “at 19.5 µM (top of the series)”, the growth rescue activity is 10.9% (inactive).

For the molecule `Cc1ccccc1C(=O)NNC(=S)NC(=O)c1ccc(Cl)cc1Cl`, the growth rescue activity (at 19.5 µM (top of the series)) is -23.2% (inactive).

Consider `O=C(Oc1c(Cl)cc(Cl)c2cccnc12)c1cccs1`, for which the growth rescue activity (at 19.5 µM (top of the series)) is -79.3% (inactive). Consider `CC(C)NC(=O)NC(=O)COC(=O)c1ccc([N+](=O)[O-])cc1Cl`, for which the growth rescue activity (at 6.8 µM (top of the series)) is -6.28% (inactive). Regarding `COc1nc(NC23CC4CC(CC(C4)C2)C3)nc(OC)n1`, where the note is “at 19.5 µM (top of the series)”, the growth rescue activity was 145% (inactive). The same measure, in the same setting: under `Clc1ccc(CSC(Cn2ccnc2)c2ccc(Cl)cc2Cl)cc1` (centres undefined) stands -73% (inactive); under `Oc1c(CN2CCCC2)cc(COCc2ccccc2)c2cccnc12`, 23.1% (inactive).

Consider `Cc1cc(O)ccc1N=Cc1c(C(F)(F)F)[nH][nH]c1=O`, for which the growth rescue activity (at 19.5 µM (top of the series)) was -11.8% (inactive).

With `CCCCn1c(=O)c(C(=O)NCc2ccncc2)c(O)c2ccccc21`, the growth rescue activity (at 19.5 µM (top of the series)) is 33% (inactive).

Consider `Cc1cc(C)c(C(=O)CC(=O)c2cccnc2)c(C)c1`, for which, for the setting “at 19.5 µM (top of the series)”, the growth rescue activity was -57.9% (inactive).

Turning to `COc1ccc(C2=CC(=O)C[C@H](c3ccc4c(c3)OCO4)C2)cc1`, the growth rescue activity (at 19.5 µM (top of the series)) was 89.7% (inactive).

Regarding `O/N=C/c1cc(Br)ccc1OCc1ccccc1F`, the growth rescue activity (at 19.5 µM (top of the series)) is -57.4% (inactive). As to `CN(C(=O)COC(=O)c1ccc([N+](=O)[O-])cc1Cl)C1CCCCC1`, the growth rescue activity (at 19.5 µM (top of the series)) was 139% (inactive). The same measure, in the same setting: under `CCCCCC1CCC(c2ccc(/C(N)=N/O)cc2)CC1` (centres undefined) stands -61.8% (inactive); under `CN(C)c1ccc(C=c2c3cc(O)ccc3n3c2cc(-c2ccccc2)[n+]3C)cc1`, -34.8% (inactive).

Consider `O=C(Nc1nnc(-c2ccccc2)o1)c1ccc(Cl)cc1`, for which the growth rescue activity (at 19.5 µM (top of the series)) is -46.1% (inactive).

On to `CCOC(=O)CN1C(=O)C2Cc3ccccc3CN2C1=S` (centres undefined), for which the growth rescue activity (at 19.5 µM (top of the series)) is 41.4% (inactive).

With `CCCCC(CC)c1nnc(NC(=O)c2cccs2)s1` (centres undefined), the growth rescue activity (at 19.5 µM (top of the series)) was -59.6% (inactive). For `CCc1cc(SC#N)cc(C)c1NC(=O)CCl`, where the note is “at 6.8 µM (top of the series)”, the growth rescue activity is -50.8% (inactive). For `Cc1ccccc1CN(C)CCS(=O)(=O)c1cc(Cl)ccc1Cl`, the growth rescue activity (at 19.5 µM (top of the series)) was -67.7% (inactive). Same read-out and setting: under `O=Nc1c(O)c2ccccc2c2ccccc12` stands -91.5% (inactive); under `CC12CCC(O)CC1=CCC1C2CCC2(C)C3=NN=CC3CC12` (centres undefined), -53.7% (inactive); under `Cc1cccc(NC(=S)NC(C)CCc2ccccc2)c1` (centres undefined), -40.4% (inactive). On the same count and under the same terms, under `CSc1nc(-c2ccccc2F)c(C#N)c(=O)n1C` stands 47.9% (inactive); under `Nc1nonc1C(=O)NCCN=Cc1cc(Cc2ccccc2)cc(Br)c1O`, -81% (inactive). The same measure, in the same setting: under `Nc1ncnc(Sc2ccccc2)c1[N+](=O)[O-]` stands 21.4% (inactive).

For the molecule `CC(=N/O)/C(=N\O)c1ccc(C)o1`, for the setting “at 19.5 µM (top of the series)”, the growth rescue activity is 3.21% (inactive). The same measure, in the same setting: under `O=C(O)CSc1cc(NS(=O)(=O)c2ccc(Cl)cc2)c2ccccc2c1O` stands -5.81% (inactive); under `Cc1ccccc1Oc1nc(-c2ccccn2)nc2ccccc12`, -58.6% (inactive). Still for that read-out and setting: under `CC(C)(C)c1ccc(S(=O)(=O)/N=C2\C=C(NS(=O)(=O)c3ccccc3)C(=O)c3ccccc32)cc1` stands -5.91% (inactive).
